Experimental data taken from patent publication US20100152188A1, “Novel Heterocyclic Compounds” (priority 2005, published 2010).

Tests used:
[1] = system: NCIH460, HCT116, MDAMB-231/U 251; assay: Anti-cancer screen, mean GI50 over the cell lines; assay type: cell-based; settings: in µM
Method: (§1) Experimental drugs are screened for anti-cancer activity in three cell lines for their GI50, TGI and LC50 values (using five concentrations for each compound). The cell lines are maintained in DMEM containing 10% fetal bovine serum. 96 well micro titer plates are inoculated with cells in 100 µL for 24 hours at 37° C., 5% CO2, 95% air and 100% relative humidity. 5000 HCT 116 cells/well, 5000 NCIH 460 cells/well and 5000 U251 cells/well are plated. A separate plate with these cell lines is also inoculated to determine cell viability before the addition of the compounds (T0).
(§2) Following 24-hour incubation, experimental drugs are added to the 96 well plates. Each plate contains one of the above cell lines and the following in triplicate: five different concentrations (0.01, 0.1, 1, 10 and 100 µM) of four different compounds, appropriate dilutions of a cytotoxic standard and control (untreated) wells. Compounds are dissolved in DMSO to make 20 mM stock solutions on the day of drug addition and frozen at −20° C. Serial dilutions of these 20 mM stock solutions are made in complete growth medium such that 100 µL of these drug solutions in medium, of final concentrations equaling 0.01, 0.1, 1, 10 and 100 µM can be added to the cells in triplicate. Standard drugs whose anti-cancer activity has been well documented and which are regularly used are doxorubicin and SAHA.
(§3) For T0 measurement, 24 hours after seeding the cells, 10 µL of 3-(4,5-Dimethyl-2-thiazolyl)-2,5-diphenyl-2H-tetrazolium (MTT) solution per well is added and incubation carried out for 3 hours at 37° C., 5% CO2, 95% air and 100% relative humidity, protected from light. Cells incubated with compounds for 48 hours are treated similarly except with the addition of 20 µl MTT solution per well and a subsequent incubation under the same conditions. After 3 hours of MTT incubation, well contents are aspirated carefully followed by addition of 150 µL DMSO per well. Plates are agitated to ensure solution of the formazan crystals in DMSO and absorbance read at 570 nm.
(§4) Percent growth is calculated for each compound's concentration relative to the control and zero measurement wells (T0; viability right before compound addition). If a test well's O.D. value is greater than the T0 measurement for that cell line

NCIH460 = assay: Anti-cancer screen (MTT), NCIH460; assay type: cell-based; settings: Homo sapiens, NCI-H460, 48 hours with compound, tested at 0.01-100 µM
Method: as §1, §2, §3, §4
(§5) %Growth=(test−zero)/(control−zero)×100
(§6) If a test well's O.D. value is lower than the T0 measurement for that cell line, then,
(§7) %Growth=(test−zero)/zero×100

HCT116 = assay: Anti-cancer screen (MTT), HCT116; assay type: cell-based; settings: Homo sapiens, HCT-116, 48 hours with compound, tested at 0.01-100 µM
Method: as §1, §2, §3, §4, §5, §6, §7

HDAC = HDAC inhibition; assay type: biochemical; settings: for HDAC Inhibition 1 μM: compound at 1 μM; for HDAC Inhibition 10 μM: compound at 10 μM
MDAMB-231/U 251 = assay: Anti-cancer screen (MTT), MDAMB-231/U 251; assay type: cell-based; settings: for CC50: 48 h, read-out: MDAMB-231/U 251 LC50; for GI50 / IC (TGI): 48 hours with compound, MTT, tested at 0.01-100 µM
Method: as §1, §2, §3, §4, §5, §6, §7

SMILES	Mean GI50 [1]	GI50 (NCIH460)	IC (TGI) (NCIH460)	LC50 (NCIH460)	GI50 (HCT116)	IC (TGI) (HCT116)	LC50 (concentration giving 50% net cell kill relative to T0) (HCT116)	HDAC Inhibition 1 μM (HDAC)	HDAC Inhibition 10 μM (HDAC)	CC50 (MDAMB-231/U 251)	GI50 (MDAMB-231/U 251)	IC (TGI) (MDAMB-231/U 251)
O=C(CCCNC(=O)Cc1csc(NC(=O)OCc2nccs2)n1)NO [Example 95, 1,3-Thiazol-2-ylmethyl[4-(2-{[4-(hydroxyamino)-4-oxobutyl]amino}-2-oxoethyl)-1,3-thiazol-2-yl]carbamate]	>100	93 µM	> 100 µM	> 100 µM	> 100 µM	> 100 µM	> 100 µM	−2.89	4.19	> 100 µM	> 100 µM	> 100 µM
N/C(=N/O)c1ccc(NC(=O)OCc2cccs2)cc1 [Example 110, 2-thienylmethyl{4-[(E)-amino(hydroxyimino)-methyl]-phenyl}-carbamate]	>100	> 100 µM	> 100 µM	> 100 µM	80 µM	> 100 µM	> 100 µM	17.50	52.34	> 100 µM	10 µM	> 100 µM
CN(O)C(=O)c1ccc(CNC(=O)OCc2cccs2)cc1 [Example 46, 2-Thienylmethyl(4-{[hydroxy(methyl)amino]carbonyl}benzyl)carbamate]	66	70 µM	> 100 µM	> 100 µM	88 µM	> 100 µM	> 100 µM	−4.01	−2.70	> 100 µM	40 µM	90 µM
O=C(CSC(F)F)Nc1cccc(NC(=O)c2ccc(CNC(=O)OCc3cccs3)cc2)c1 [Example 108, 2-Thienylmethyl[4-({[3-({[(difluoromethyl)thio]acetyl}amino)phenyl]amino}carbonyl)benzyl]carbamate]	>100	9.5 µM	> 100 µM	> 100 µM	100 µM	> 100 µM	> 100 µM	−8.74	−0.86	> 100 µM	5 µM	15 µM
O=C(Nc1ccc(C(=O)NO)cc1)OCC1c2ccccc2-c2ccccc21 [Example 76]	6.8	10 µM	82 µM	> 100 µM	7.5 µM	65 µM	> 100 µM	50.50	75.80	90 µM	3 µM	9 µM
O=C(NCc1ccc(C(=O)NO)cc1)OCn1nnc2ccccc21 [Example 34, 1H-1,2,3-Benzotriazol-1-ylmethyl{4-[(hydroxyamino)carbonyl]benzyl}carbamate]	49.3	58 µM	> 100 µM	> 100 µM	60 µM	> 100 µM	> 100 µM	62.1	98.6	> 100 µM	30 µM	> 100 µM
O=C(Cc1csc(NC(=O)OCc2cccnc2)n1)Nc1ccccc1O [Example 19, Pyridin-3-ylmethyl(4-{2-[(2-hydroxyphenyl)amino]-2-oxoethyl}-1,3-thiazol-2-yl)carbamate]	14.2	1 µM	60 µM	> 100 µM	34 µM	> 100 µM	> 100 µM		0.50	> 100 µM	7.6 µM	80 µM
O=C(NCc1ccc(C(=O)Nc2nnc(C3CC3)s2)cc1)OCc1nccs1 [Example 65, 1,3-Thiazol-2-ylmethyl(4-{[(5-cyclopropyl-1,3,4-thiadiazol-2-yl)amino]carbonyl}benzyl)carbamate]	17.67	12 µM	85 µM	> 100 µM	36 µM	> 100 µM	> 100 µM	11.65	8.84	> 100 µM	5 µM	45 µM
CC(=O)N(O)C(=O)Cc1csc(NC(=O)OCc2cccs2)n1 [Example 80, 2-Thienylmethyl(4-{2-[acetyl(hydroxy)amino]-2-oxoethyl}-1,3-thiazol-2-yl)carbamate]	>100	53 µM	> 100 µM	> 100 µM	> 100 µM	> 100 µM	> 100 µM		5.28	> 100 µM	35 µM	96 µM
O=C(NCc1ccc(C(=O)NO)cc1)OCC1COc2ccccc2O1 (stereo not shown) [Example 32, 2,3-Dihydro-1,4-benzodioxin-2-ylmethyl {4-[(hydroxyamino)carbonyl]benzyl}carbamate]	7	5 µM	42 µM	95 µM	5 µM	25 µM	> 100 µM	78.12	92.67	80 µM	11 µM	45 µM
O=C(Cc1csc(NC(=O)OCc2ccncc2)n1)NO [Example 4, Pyridin-4-ylmethyl{4-[2-(hydroxyamino)-2-oxoethyl]-1,3-thiazol-2-4.yl}carbamate]	13	20 µM	> 100 µM	> 100 µM	> 100 µM	> 100 µM	> 100 µM	5.6	38.13	> 100 µM	6 µM	> 100 µM
O=C(NCc1ccc(C(=O)Nc2nnc(C(F)(F)F)s2)cc1)OCc1nccs1 [Example 64, 1,3-Thiazol-2-ylmethyl[4-({[5-(trifluoromethyl)-1,3,4-thiadiazol-2-yl]amino}carbonyl)benzyl]carbamate]	>100	> 100 µM	> 100 µM	> 100 µM	> 100 µM	> 100 µM	> 100 µM	4.95	7.43	> 100 µM	> 100 µM	> 100 µM
Nc1ccccc1NC(=O)Cc1csc(NC(=O)OCc2cccnc2)n1 [Example 18, Pyridin-3-ylmethyl(4-{2-[(2-aminophenyl)amino]-2-oxoethyl}-1,3-thiazol-2-yl)carbamate]	>100	100 µM	> 100 µM	> 100 µM	> 100 µM	> 100 µM	> 100 µM	2.19	7.99	> 100 µM	12 µM	> 100 µM
O=C(NCc1ccc(C(=O)Nc2nnc(C(F)(F)F)s2)cc1)OCc1nc2ccccc2s1 [Example 58, 1,3-Benzothiazol-2-ylmethyl[4-({[5-(trifluoromethyl)-1,3,4-thiadiazol-2-yl]amino}carbonyl)benzyl]carbamate]	7.3	2 µM	7 µM	> 100 µM	20 µM	> 100 µM	> 100 µM	0.4	−11.54	83 µM	0.04 µM	0.8 µM
